Test results as given in patent US10167283B2, “β-lactamase inhibitors and uses thereof” (priority 2015, dated 2019).
pIC50: −log10 of the molar value. Structures can show the parent of a compound that is named as a salt. Where two headings read alike, the source gives them in different places.

Key:
AmpC = biological target: T1, AmpC (UniProt P05364); test: β-lactamase inhibition, Nitrocefin hydrolysis; assay type: biochemical; details: Nitrocefin 0.1 mM
T1 construct: The concentration of purchased β-lactamases mother liquor was 1 mg/mL, and the mother liquor was dissolved in 50% glycerol
Protocol: Nitrocefin, a kind of cephalosporin antibiotics, is sensitive to most of β-lactamases, and changes in color after being hydrolyzed. The hydrolysis rate of Nitrocefin was measured by real-time recording corresponding absorbance of reaction system. β-Lactamase inhibitors could inhibit hydrolysis of the enzymes to Nitrocefin, and reduce hydrolysis rate. By measuring reaction rates in the same reaction system under different inhibitor concentrations, the IC50 (half maximal inhibitory concentration) values of inhibitors were calculated.
Nitrocefin was dissolved in DMSO to form a solution with concentration of 2 mM, which was sub-packaged and stored at −20° C. The concentration of purchased β-lactamases mother liquor was 1 mg/mL, and the mother liquor was dissolved in 50% glycerol. A part of mother liquor was taken and diluted by 1000 times in reaction solution, sub-packaged and stored at ˜20° C.
The compounds to be tested were dissolved in DMSO to form a mother liquor with concentration of 10 mM. If not used that day, the mother liquor was stored at −20° C. Its test final concentrations were: 100 μM, 25 μM, 6.25 μM, 1.563 μM, 390.6 nM, 97.66 nM, 24.41 nM, 6.10 nM, 1.53 nM, 0.381 nM, 0.095 nM.

[1] = Pharmacokinetics in SD rats (iv); assay type: in vivo, SD rat; details: male, plasma; for half-life / clearance: SD, rat, iv, 1 mg/kg; for clearance: read-out: Cl—obs (converted); for Vd / AUC(0-t): SD rat, iv 1 mg/kg; for Vd: apparent volume of distribution, read-out: Vss—obs; for AUC(0-t): area under the curve 0→t
Protocol: Experimental Example 1: Pharmacokinetics Experiments of the Compound of the Present Invention in Rats Test animals: 3 male SD rats, bodyweight 200-250 g for each animal. Test samples were administrated via intravenous push (iv), dosage of administration was 1 mg/kg, volume of administration was 2 mL/kg. Collecting time points: iv: after administration 0.083 […]. At each time point, about 100 μL of whole blood was sampled via caudal vein, added to K2EDTA anti-coagulative tube, centrifuged in a refrigerated centrifuge under 8000 rpm for 6 min to separate plasma, and the plasma was stored in -80° C. refrigerator. Plasma (20 μL) was taken and placed in a 96-well deep-well plate, and internal standard solution (300 μL) was added, subjected to vortex for 5 min, then centrifuged under 12000 rpm for 5 min, and then supernatant (200 μL) was taken and subjected to vortex for 3 min; to be analyzed by LC-MS/MS. Plasma (30 μL) was taken and placed in 1.5 mL EP tube, and internal standard solution (300 μL) was added, subjected to vortex for 5 min, then centrifuged under 12000 rpm for 5 min, and then supernatant (200 μL) was taken and subjected to vortex for 3 min; to be analyzed by LC-MS/MS. Plasma (30 μL) was taken and placed in a 96-well deep-well plate, and internal standard solution (200 μL) was added, subjected to vortex for 5 min, then centrifuged under 4000 rpm for 20 min, and then supernatant (100 μL) was taken and water (100 μL) was added, and subjected to vortex homogeneously; to be analyzed by LC-MS/MS.

[2] = system: Klebsiella pneumoniae 7460kpn-607 (NDM, ESBLs); test: In vitro antibacterial activity on clinically separated CRE strain, agar dilution MIC; assay type: cell-based; details: Table 3, 7460kpn-607 Klebsiella pneumoniae
Source text: (§1) Experimental strains: all experimental standard bacterial strains for enzyme production were purchased from ATCC, and the clinically separated CRE strain was purchased from Southwest Hospital of the Third Military Medical University.
(§2) Experimental Method: Agar dilution method, referring to M100-S23: Performance Standards for Antimicrobial Susceptibility Testing: Twenty-Third Informational Supplement (Clinical And Laboratory Standards Institute, 2013). Minimal inhibitory concentration (MIC, μg/mL) was calculated.

[3] = system: Citrobacter freundii 7521cfr-169 (NDM, ESBLs, AmpC); test: as above; assay type: cell-based; details: Table 3, 7521cfr-169 Citrobacter freundii
Source text: as §1, §2

[4] = system: Klebsiella pneumoniae 7450kpn-597 (KPC, ESBLs); test: as above; assay type: cell-based; details: Table 3, 7450kpn-597 Klebsiella pneumoniae
Source text: as §1, §2

[5] = system: Enterobacter cloacae 7513ecl-314 (AmpC); test: as above; assay type: cell-based
Source text: as §1, §2

[6] = system: Enterobacter hormaechei BAA-2082 (KPC); test: In vitro antibacterial activity, agar dilution MIC; assay type: cell-based; details: BAA2082; Table 2; BAA-2082 Enterobacter hormaechei, KPC; read-out: MIC
Source text: as §1, §2

[7] = system: Klebsiella pneumoniae BAA-2146 (NDM-1); test: In vitro antibacterial activity, agar dilution MIC; assay type: cell-based; details: NDM-1, read-out: MIC
Source text: as §1, §2

[8] = system: Escherichia coli BAA-2340 (KPC); test: In vitro antibacterial activity, agar dilution MIC; assay type: cell-based; details: BAA2340, Table 2, BAA-2340 Escherichia coli
Source text: as §1, §2

[9] = system: Enterobacter cloacae BAA-2341 (KPC); test: In vitro antibacterial activity, agar dilution MIC; assay type: cell-based; details: BAA2341; Table 2; BAA-2341 Enterobacter cloacae, KPC; read-out: MIC
Source text: as §1, §2

[10] = system: Escherichia coli BAA-2523 (OXA-48); test: In vitro antibacterial activity, agar dilution MIC; assay type: cell-based; details: OXA-48, read-out: MIC
Source text: as §1, §2

[11] = system: Escherichia coli BAA-2452 (NDM-1); test: In vitro antibacterial activity, agar dilution MIC; assay type: cell-based; details: NDM-1, read-out: MIC
Source text: as §1, §2

[12] = system: Escherichia coli BAA-196 (TEM-10); test: In vitro antibacterial activity, agar dilution MIC; assay type: cell-based; details: TEM-10, read-out: MIC
Source text: as §1, §2

[13] = system: Klebsiella pneumoniae BAA-2524 (OXA-48); test: In vitro antibacterial activity, agar dilution MIC; assay type: cell-based; details: BAA2524; Table 2; BAA-2524 Klebsiella pneumoniae, OXA-48; read-out: MIC
Source text: as §1, §2

[14] = system: Klebsiella pneumoniae BAA-1900 (KPC); test: In vitro antibacterial activity, agar dilution MIC; assay type: cell-based; details: KPC, read-out: MIC
Source text: as §1, §2

[15] = system: Klebsiella oxytoca ATCC-51983 (SHV-5); test: In vitro antibacterial activity, agar dilution MIC; assay type: cell-based; details: ATCC51983; Table 2; ATCC-51983 Klebsiella oxytoca, SHV-5; read-out: MIC
Source text: as §1, §2

[16] = Table 3, 7513ecl-314 Enterobacter cloacae
[17] = BAA2146, Table 2, BAA-2146 Klebsiella pneumoniae
[18] = BAA2523, Table 2, BAA-2523 Escherichia coli
[19] = BAA2452, Table 2, BAA-2452 Escherichia coli
[20] = BAA196, Table 2, BAA-196 Escherichia coli
[21] = BAA1900, Table 2, BAA-1900 Klebsiella pneumoniae
[22] = Experiment 1, enzyme 0.4 nM, read-out: IC50 Type C AmpC

SMILES	half-life [1] [min]	clearance [1] [mL/min/kg]	Vd [1] [L/kg]	AUC(0-t) [1] [ng·h/mL]	MIC [2] [µg/mL]	MIC [3] [µg/mL]	MIC [4] [µg/mL]	MIC [5, 16] [µg/mL]	MIC [6] [µg/mL]	MIC [7, 17] [µg/mL]	MIC [8] [µg/mL]	MIC [9] [µg/mL]	MIC [10, 18] [µg/mL]	MIC [11, 19] [µg/mL]	MIC [12, 20] [µg/mL]	MIC [13] [µg/mL]	MIC [14, 21] [µg/mL]	MIC [15] [µg/mL]	pIC50 (AmpC; [22])	also measured
O=C(NC1CC2(CNC2)C1)[C@@H]1CC[C@@H]2CN1C(=O)N2OS(=O)(=O)O [Compound 2, (2S,5R)-2-((2-azaspiro[3.3]heptan-6-yl)carbamoyl)-7-oxo-1,6-diazabicyclo[3.2.1]octan-6-yl hydrogen sulfate]	44.4	6.67	0.261	2500	2	2	2	2	2	2	0.5	2	1	1	1	2	1	2	–	pIC50 (AmpC; read-out: IC50 AmpC, Experiment 2, enzyme 1.6 nM): 7.76; pIC50 (AmpC; read-out: IC50 Type C AmpC, Experiment 1, enzyme 0.4 nM): 7.49
NC(=O)[C@@H]1CC[C@@H]2CN1C(=O)N2OS(=O)(=O)O [AVI sodium salt, Avibactam, reference compound]	24.6	14.9	0.535	1140	> 8	8	> 8	> 8	> 8	> 8	8	> 8	8	> 8	> 8	> 8	> 8	> 8	7.00	MIC ([5]; first Table 4, 7513ecl-314 Enterobacter cloacae): 32 µg/mL; MIC ([7]; BAA2146, first Table 4, BAA-2146 Klebsiella pneumoniae): 8 µg/mL; MIC ([10]; BAA2523, first Table 4, BAA-2523 Escherichia coli): 16 µg/mL; MIC ([11]; BAA2452, first Table 4, BAA-2452 Escherichia coli): 16 µg/mL; MIC ([12]; BAA196, first Table 4, BAA-196 Escherichia coli): 16 µg/mL; MIC ([14]; BAA1900, first Table 4, BAA-1900 Klebsiella pneumoniae): 16 µg/mL
O=C(NC1CCNCC1)[C@@H]1CC[C@@H]2CN1C(=O)N2OS(=O)(=O)O [MK-7655, reference compound]	23.4	16.7	0.409	1020	> 8	> 8	> 8	> 8	> 16	> 16	> 16	> 16	> 16	> 16	> 16	> 16	> 16	> 16	7.31	–
